In patent US20220340566A1, “BENZYL AMINE-CONTAINING 5,6-HETEROAROMATIC COMPOUNDS USEFUL AGAINST MYCOBACTERIAL INFECTION” (priority 2019, published 2022):

Key:
[1] = system: Mycobacterium avium ATCC700898; assay: Determination of IC85 against M. avium (resazurin fluorescence); format: cell-based; settings: Mycobacterium avium, ATCC700898, M. avium ATCC700898, CAMHB medium, 37° C., 3 days incubation then resazurin, fluorescence one day later; read-out: IC85
[2] = Metabolic stability test in pooled human liver microsomes; format: in vitro ADME; settings: human liver microsomes 0.5 mg protein/mL, 1 mmol/L NADPH, 37° C., 30 minutes
Experimental: Using a commercially available pooled human liver microsomes, a compound of the present invention was reacted for a constant time, a remaining rate was calculated by comparing a reacted sample and an unreacted sample, thereby, a degree of metabolism in liver was assessed.
A reaction was performed (oxidative reaction) at 37° C. for 0 minute or 30 minutes in the presence of 1 mmol/L NADPH in 0.2 mL of a buffer (50 mmol/L Tris-HCl pH 7.4, 150 mmol/L potassium chloride, 10 mmol/L magnesium chloride) containing 0.5 mg protein/mL of human liver microsomes. After the reaction, 50 μL of the reaction solution was added to 100 μL of a methanol/acetonitrile=1/1 (v/v), mixed and centrifuged at 3000 rpm for 15 minutes. The compound of the present invention in the supernatant was quantified by LC/MS/MS or solid phase extraction (SPE)/MS, and a remaining amount of the compound of the present invention after the reaction was calculated, letting a compound amount at 0 minute reaction time to be 100%.

## Cc1nc2cc(F)ccn2c1C(=O)NCc1ccc(N2CCN(c3ccc(OC(F)(F)F)cc3)[C@@H](C)C2)c(F)c1 [Compound I-1-46]
[1]
  IC85: 2.6 nM
[2]
  MS_h_% (remaining amount of compound after reaction, 0 minute = 100%): 96%

## Cc1cc2nc(C)c(C(=O)NCc3ccc(N4CCN(c5ccc(OC(F)(F)F)cc5)[C@@H](C)C4)c(F)c3)n2cc1F [Compound I-1-47]
[1]
  IC85: 110 nM
[2]
  MS_h_% (remaining amount of compound after reaction, 0 minute = 100%): 85%

## CCc1nc2cc(C)c(Cl)cn2c1C(=O)NCc1ccc(N2CCN(c3ccc(OC(F)(F)F)cc3)[C@@H](C)C2)c(F)c1 [Compound I-1-48]
[1]
  IC85: 35 nM
[2]
  MS_h_% (remaining amount of compound after reaction, 0 minute = 100%): 69%

## CCc1nc2cc(C)c(F)cn2c1C(=O)NCc1ccc(N2CCN(c3ccc(OC(F)(F)F)cc3)[C@@H](C)C2)c(F)c1 [Compound I-1-49]
[1]
  IC85: 68 nM
[2]
  MS_h_% (remaining amount of compound after reaction, 0 minute = 100%): 59%

## Cc1nc2ccc(C#N)cn2c1C(=O)NCc1ccc(N2CCN(c3ccc(OC(F)(F)F)cc3)[C@@H](C)C2)c(F)c1.Cl [Compound I-1-50]
[1]
  IC85: 500 nM
[2]
  MS_h_% (remaining amount of compound after reaction, 0 minute = 100%): 94%

## Cc1nc2cc(Cl)ccn2c1C(=O)NCc1ccc(N2CCN(c3ccc(OC(F)(F)F)cc3)[C@@H](C)C2)c(F)c1.Cl [Compound I-1-51]
[1]
  IC85: 110 nM
[2]
  MS_h_% (remaining amount of compound after reaction, 0 minute = 100%): 90%

## Cc1nc2ccccn2c1C(=O)NCc1ccc(N2CCN(c3ccc(OC(F)(F)F)cc3)[C@@H](C)C2)c(F)c1.Cl [Compound I-1-52]
[1]
  IC85: 5.4 nM
[2]
  MS_h_% (remaining amount of compound after reaction, 0 minute = 100%): 84%

## CCOc1ccc(N2CCN(c3ccc(CNC(=O)c4c(CC)nc5ccc(Cl)cn45)cc3F)C[C@@H]2C)cc1F.Cl [Compound I-1-53]
[1]
  IC85: 37 nM
[2]
  MS_h_% (remaining amount of compound after reaction, 0 minute = 100%): 65%

## CCc1nc2ccc(Cl)cn2c1C(=O)NCc1ccc(N2CCN(c3ccc(OCC4CC4)cc3)[C@@H](C)C2)c(F)c1.Cl [Compound I-1-54]
[1]
  IC85: 34 nM
[2]
  MS_h_% (remaining amount of compound after reaction, 0 minute = 100%): 79%

## CCOc1ccc(N2CCN(c3ccc(CNC(=O)c4c(CC)nc5ccc(Cl)cn45)cc3F)C[C@@H]2C)cc1OC.Cl [Compound I-1-55]
[1]
  IC85: 690 nM
[2]
  MS_h_% (remaining amount of compound after reaction, 0 minute = 100%): 84%

## CCc1nc2ccc(Cl)cn2c1C(=O)NCc1ccc(N2CCN(c3ccc(OCC(C)(C)C)cc3)[C@@H](C)C2)c(F)c1.Cl [Compound I-1-56]
[1]
  IC85: 22 nM
[2]
  MS_h_% (remaining amount of compound after reaction, 0 minute = 100%): 60%

## Cc1ccc2nc(Cl)c(C(=O)NCc3ccc(N4CCN(c5ccc(OC(F)(F)F)cc5)[C@@H](C)C4)c(F)c3)n2c1.Cl [Compound I-1-57]
[1]
  IC85: 3.6 nM
[2]
  MS_h_% (remaining amount of compound after reaction, 0 minute = 100%): 84%

## Cc1ccn2c(C(=O)NCc3ccc(N4CCC(c5ccc(OC(F)(F)F)cc5)[C@@H](C)C4)c(F)c3)c(Cl)nc2c1.Cl (some centres unmarked) [Compound I-1-58]
[1]
  IC85: 77 nM
[2]
  MS_h_% (remaining amount of compound after reaction, 0 minute = 100%): 89%

## C[C@H]1CN(c2ccc(CNC(=O)c3c(Cl)nc4ccccn34)cc2F)CCN1c1ccc(OC(F)(F)F)cc1.Cl [Compound I-1-59]
[1]
  IC85: 11 nM
[2]
  MS_h_% (remaining amount of compound after reaction, 0 minute = 100%): 87%

## Cc1nc2cc(Cl)ccn2c1C(=O)NCc1ccc(N2CC=C(c3ccc(OC(F)(F)F)cc3)CC2)c(F)c1.Cl [Compound I-1-60]
[1]
  IC85: 11 nM
[2]
  MS_h_% (remaining amount of compound after reaction, 0 minute = 100%): 72%

## Cc1ccn2c(C(=O)NCc3ccc(N4CC=C(c5ccc(OC(F)(F)F)cc5)CC4)c(F)c3)c(C)nc2c1.Cl [Compound I-1-61]
[1]
  IC85: 200 nM
[2]
  MS_h_% (remaining amount of compound after reaction, 0 minute = 100%): 95%

## CCc1nc2ccc(Cl)cn2c1C(=O)NCc1ccc(N2CCC(c3ccc(OC(F)(F)F)cc3)CC2)c(F)c1.Cl [Compound I-1-62]
[1]
  IC85: 7.2 nM
[2]
  MS_h_% (remaining amount of compound after reaction, 0 minute = 100%): 82%

## Cc1nc2ccc(Cl)cn2c1C(=O)NCc1ccc(N2CCC(c3ccc(OC(F)(F)F)cc3)CC2)c(F)c1.Cl [Compound I-1-63]
[1]
  IC85: 12 nM
[2]
  MS_h_% (remaining amount of compound after reaction, 0 minute = 100%): 95%

## Cc1nc2ccc(F)cn2c1C(=O)NCc1ccc(N2CCC(c3ccc(OC(F)(F)F)cc3)CC2)c(F)c1.Cl [Compound I-1-64]
[1]
  IC85: 79 nM
[2]
  MS_h_% (remaining amount of compound after reaction, 0 minute = 100%): 94%

## Cc1ccn2c(C(=O)NCc3ccc(N4CCC(c5ccc(OC(F)(F)F)cc5)CC4)c(F)c3)c(C)nc2c1.Cl [Compound I-1-65]
[1]
  IC85: 120 nM
[2]
  MS_h_% (remaining amount of compound after reaction, 0 minute = 100%): 96%

## CCc1nc2ccc(Cl)cn2c1C(=O)NCc1cc(F)c(N2CCC(c3ccc(OC(F)(F)F)cc3)CC2)c(F)c1.Cl [Compound I-1-66]
[1]
  IC85: 11 nM
[2]
  MS_h_% (remaining amount of compound after reaction, 0 minute = 100%): 83%

## Cc1ccn2c(C(=O)NCc3cc(F)c(N4CCC(c5ccc(OC(F)(F)F)cc5)CC4)c(F)c3)c(C)nc2c1.Cl [Compound I-1-67]
[1]
  IC85: 68 nM
[2]
  MS_h_% (remaining amount of compound after reaction, 0 minute = 100%): 93%

## CCc1nc2cc(F)ccn2c1C(=O)NCc1ccc(N2CCC(c3ccc(OC(F)(F)F)cc3)CC2)c(F)c1.Cl [Compound I-1-68]
[1]
  IC85: 13 nM
[2]
  MS_h_% (remaining amount of compound after reaction, 0 minute = 100%): 91%

## Cc1nc2cc(Cl)ccn2c1C(=O)NCc1ccc(N2CCC(c3ccc(OC(F)(F)F)cc3)CC2)c(F)c1.Cl [Compound I-1-69]
[1]
  IC85: 510 nM
[2]
  MS_h_% (remaining amount of compound after reaction, 0 minute = 100%): 89%

## Cc1ccn2nc(C)c(C(=O)NCc3ccc(N4CCN(c5ccc(OC(F)(F)F)cc5)[C@@H](C)C4)c(F)c3)c2c1.Cl [Compound I-1-70]
[1]
  IC85: 25 nM
[2]
  MS_h_% (remaining amount of compound after reaction, 0 minute = 100%): 84%

## Cc1ccn2nc(C)c(C(=O)NCc3ccc(N4CCN(c5ccc(OC(F)(F)F)cc5)[C@H](C)C4)c(F)c3)c2c1.Cl [Compound I-1-71]
[1]
  IC85: 100 nM
[2]
  MS_h_% (remaining amount of compound after reaction, 0 minute = 100%): 78%

## Cc1ccn2nc(C)c(C(=O)NCc3ccc(C4CCN(c5ccc(OC(F)(F)F)cc5)CC4)c(F)c3)c2c1.Cl [Compound I-1-72]
[1]
  IC85: 66 nM
[2]
  MS_h_% (remaining amount of compound after reaction, 0 minute = 100%): 87%

## CCOc1ccc(N2CCC(c3ccc(CNC(=O)c4c(CC)nc5ccc(Cl)cn45)cc3F)CC2)cc1.Cl [Compound I-1-73]
[1]
  IC85: 19 nM
[2]
  MS_h_% (remaining amount of compound after reaction, 0 minute = 100%): 90%

## CCc1nc2ccc(Cl)cn2c1C(=O)NCc1ccc(C2CCN(c3ccc(OC4CC4)cc3)CC2)c(F)c1.Cl [Compound I-1-74]
[1]
  IC85: 39 nM
[2]
  MS_h_% (remaining amount of compound after reaction, 0 minute = 100%): 64%

## CCc1nc2ccc(Cl)cn2c1C(=O)NCc1ccc(C2CCN(c3ccc(OCC4CC4)cc3)CC2)c(F)c1.Cl [Compound I-1-75]
[1]
  IC85: 16 nM
[2]
  MS_h_% (remaining amount of compound after reaction, 0 minute = 100%): 71%

## CCc1nc2ccc(Cl)cn2c1C(=O)NCc1ccc(C2CCN(c3ccc(OCC4CC4)nc3)CC2)c(F)c1.Cl [Compound I-1-76]
[1]
  IC85: 46 nM
[2]
  MS_h_% (remaining amount of compound after reaction, 0 minute = 100%): 80%

## CCc1nc2ccc(Cl)cn2c1C(=O)NCc1ccc(C2CCN(c3ccc(OCC4CC4)cn3)CC2)c(F)c1.Cl [Compound I-1-77]
[1]
  IC85: 22 nM
[2]
  MS_h_% (remaining amount of compound after reaction, 0 minute = 100%): 59%

## CCCCOc1ccc(N2CCC(c3ccc(CNC(=O)c4c(CC)nc5ccc(Cl)cn45)cc3F)CC2)cc1.Cl [Compound I-1-78]
[1]
  IC85: 37 nM
[2]
  MS_h_% (remaining amount of compound after reaction, 0 minute = 100%): 69%

## CCc1nc2ccc(Cl)cn2c1C(=O)NCc1ccc(C2CCN(c3ccc(OCC(C)C)cn3)CC2)c(F)c1.Cl [Compound I-1-79]
[1]
  IC85: 36 nM
[2]
  MS_h_% (remaining amount of compound after reaction, 0 minute = 100%): 65%

## CCc1nc2ccc(Cl)cn2c1C(=O)NCc1ccc(N2CCC(c3ccc(OC(F)(F)F)cc3)CC2)c(Cl)c1.Cl [Compound I-1-80]
[1]
  IC85: 60 nM
[2]
  MS_h_% (remaining amount of compound after reaction, 0 minute = 100%): 74%

## Cc1ccn2c(C(=O)NCc3ccc(N4CCC(c5ccc(OC(F)(F)F)cc5)CC4)cc3F)c(C)nc2c1.Cl [Compound I-1-81]
[1]
  IC85: 330 nM
[2]
  MS_h_% (remaining amount of compound after reaction, 0 minute = 100%): 94%

## Cc1ccn2c(C(=O)NCc3ccc(N4CCC(c5ccc(OC(F)(F)F)cc5)CC4)c(Cl)c3)c(C)nc2c1.Cl [Compound I-1-82]
[1]
  IC85: 500 nM
[2]
  MS_h_% (remaining amount of compound after reaction, 0 minute = 100%): 98%

## CCc1nc2cc(Cl)ccn2c1C(=O)NCc1ccc(N2CCN(c3ccc(OC(F)(F)F)cc3)[C@H](C)C2)c(F)c1.Cl [Compound I-1-83]
[1]
  IC85: 620 nM
[2]
  MS_h_% (remaining amount of compound after reaction, 0 minute = 100%): 85%

## Cc1nc2ccc(F)cn2c1C(=O)NCc1ccc(N2CCN(c3ccc(OC(F)(F)F)cc3)[C@H](C)C2)c(F)c1.Cl [Compound I-1-84]
[1]
  IC85: 38 nM
[2]
  MS_h_% (remaining amount of compound after reaction, 0 minute = 100%): 86%

## Cc1nc2ccc(Cl)cn2c1C(=O)NCc1ccc(N2CCN(c3ccc(OC(F)(F)F)cc3)[C@H](C)C2)c(F)c1.Cl [Compound I-1-85]
[1]
  IC85: 6.9 nM
[2]
  MS_h_% (remaining amount of compound after reaction, 0 minute = 100%): 91%

## CCc1nc2ccc(Cl)cn2c1C(=O)NCc1ccc([C@@H]2CO[C@@H](c3ccc(OC(F)(F)F)cc3)CO2)c(F)c1 [Compound I-1-86]
[1]
  IC85: 28 nM
[2]
  MS_h_% (remaining amount of compound after reaction, 0 minute = 100%): 77%

## CCc1nc2cc(F)ccn2c1C(=O)NCc1ccc(N2CC=C(c3ccc(OC(F)(F)F)cc3)CC2)c(F)c1.Cl [Compound I-1-87]
[1]
  IC85: 7.9 nM
[2]
  MS_h_% (remaining amount of compound after reaction, 0 minute = 100%): 86%

## CCc1nc2cc(F)ccn2c1C(=O)NCc1cc(F)c(N2CCC(c3ccc(OC(F)(F)F)cc3)CC2)c(F)c1.Cl [Compound I-1-88]
[1]
  IC85: 6.1 nM
[2]
  MS_h_% (remaining amount of compound after reaction, 0 minute = 100%): 89%
